Assay results: publication PMC9822066 (Molecules, 2022)
Several values for one entry are separate records, joined by “and”; a condition that tells them apart may be missing. Equal values may be shown once. Where a name gives a salt, the structure may show the parent alone. Read-outs that look alike come from different tables or passages of the source.

Tests used:
[1] = PAMPA, triplicate
[2] = Metabolic stability in mouse liver microsomes; assay type: in vitro ADME
Description: The metabolic stability of 6 was investigated first in silico with the use of MetaSite 6.0.1 software.
The in silico prediction of the most possible metabolic pathways was conducted by MetaSite 6.0.1. Software (Molecular Discovery Ltd., Borehamwood, UK). […] The compound was incubated for 120 min at 37 °C in TRIS-HCl buffer (pH 7.4) with the addition of NADPH Regeneration System (Promega, Madison, WI, USA). The LC/MS analysis and MS/MS fragmentations were used as a tool for the determination of the substrate remaining and the structures of the metabolites.

[3] = test system: mice; assay: Formalin test; assay type: in vivo; conditions: Mus musculus, ip
[4] = test system: hepatoma HepG2 cells; assay: Hepatotoxicity, MTS viability of HepG2 cells; conditions: for concentration decreasing HepG2 cell viability: 72 h incubation, MTS
Description: Doxorubicin (DX) at the concentration of 1 μM was used as the reference cytostatic drug.
A multifunctional reader EnSpire (PerkinElmer, Waltham, MA, USA) was used to measure the absorbance.

[5] = test system: mice; assay: Passive Avoidance Test, scopolamine-induced amnesia; assay type: in vivo; parameters: unit not given here; conditions: mean ± SEM
[6] = target: T1, human H3R (Homo sapiens, UniProt Q9Y5N1); assay: [3H]Nα-methylhistamine radioligand binding assay in HEK293 cells stably expressing hH3R
T1 construct: expressed in transfected cells; host or cells: HEK293
Description: Final compounds were tested for their H3R affinity in a radioligand binding assay using [^3H]N^α-methylhistamine as radioligand in HEK293 cells stably expressing hH3R [25]. […] Affinity to hH3R stably expressed in HEK293 cells was evaluated in a radioligand binding assay as described previously. […] The radioactivity was counted in a MicroBeta Trilux counter (PerkinElmer). Data were fitted to a one-site curve-fitting equation with Prism 6 (GraphPad Software, San Diego, CA, USA) and Ki values were calculated from IC50 values (from at least three experiments performed in duplicates) according to the Cheng−Prusoff equation [52].

[7] = test system: SH-SY5Y neuroblastoma cells; assay: Highest non-toxic concentration estimated before the neuroprotection assay; assay type: cell-based
Description: […]. however, it was statistically insignificant. […] Statistical significance was calculated against the number of necrotic cells in the H2O2-treated population. Additionally, the MTS test was performed in which the viability of cells was measured.

[8] = target: T2, human recombinant AChE (hAChE) (Homo sapiens, UniProt P22303); assay: Ellman's colorimetric assay, hAChE inhibition; assay type: biochemical
T2 construct: purchased Sigma–Aldrich (Steinheim, Germany)

[9] = target: eqBuChE (Equus caballus, UniProt P81908); assay: Kinetic study of eqBuChE inhibition (Lineweaver-Burk, Cornish-Bowden); assay type: biochemical, equine; conditions: substrate butyrylthiocholine
Description: (§1) The inhibitor was tested in the concentrations giving enzyme activities between 30% and 80%. For each concentration of the inhibitor, substrate (ATC/BTC) was added at concentrations of 0.3, 0.24, 0.18, 0.12, 0.06, and 0.04 mM in the wells. The stock solutions of ATC and BTC (0.5 mM) were prepared in water and diluted before use. Each experiment was performed in triplicate. Vmax and Km values of the Michaelis−Menten kinetics were calculated by nonlinear regression from substrate−velocity curves. Lineweaver–Burk and Cornish–Bowden plots were calculated using linear regression in GraphPad Prism 5 (GraphPad Software, San Diego, CA, USA).

[10] = target: T3, electric eel AChE (eeAChE) (Electrophorus electricus, UniProt O42275); assay: biochemical; conditions: triplicate independent experiments
T3 construct: purchased Sigma–Aldrich (Steinheim, Germany)

[11] = in vitro; conditions: PAMPA
[12] = target: BuChE from equine serum (eqBuChE) (Equus caballus, UniProt P81908); assay: biochemical; assay type: biochemical; conditions: mean ± SEM, triplicate independent experiments
[13] = test system: SH-SY5Y neuroblastoma cells; assay: Neuroprotection against H2O2, MTS viability assay; assay type: cell-based; conditions: 300 µM H2O2, 24 h
[14] = target: T4, eeAChE (Electrophorus electricus, UniProt O42275); assay: Kinetic study of eeAChE inhibition (Lineweaver-Burk, Cornish-Bowden); assay type: biochemical, electric eel; conditions: substrate acetylthiocholine
T4 construct: purchased Sigma–Aldrich (Steinheim, Germany)
Description: as §1

[15] = target: T5, BuChE from human serum (hBuChE) (Homo sapiens, UniProt P06276); assay: Ellman's colorimetric assay, hBuChE inhibition; assay type: biochemical
T5 construct: Human BuChE from human serum was provided by Vivonics (Bedford, MA, USA); purchased Vivonics (Bedford, MA, USA); host or cells: human serum

[16] = target: T6, hMAO B (Homo sapiens, UniProt P27338); assay: Fluorometric MAO assay, hMAO B inhibition; assay type: biochemical; conditions: mean ± SEM of two independent experiments, read-out: hMAO B %Inh. at 1 µM
T6 sequence (P27338 1-520): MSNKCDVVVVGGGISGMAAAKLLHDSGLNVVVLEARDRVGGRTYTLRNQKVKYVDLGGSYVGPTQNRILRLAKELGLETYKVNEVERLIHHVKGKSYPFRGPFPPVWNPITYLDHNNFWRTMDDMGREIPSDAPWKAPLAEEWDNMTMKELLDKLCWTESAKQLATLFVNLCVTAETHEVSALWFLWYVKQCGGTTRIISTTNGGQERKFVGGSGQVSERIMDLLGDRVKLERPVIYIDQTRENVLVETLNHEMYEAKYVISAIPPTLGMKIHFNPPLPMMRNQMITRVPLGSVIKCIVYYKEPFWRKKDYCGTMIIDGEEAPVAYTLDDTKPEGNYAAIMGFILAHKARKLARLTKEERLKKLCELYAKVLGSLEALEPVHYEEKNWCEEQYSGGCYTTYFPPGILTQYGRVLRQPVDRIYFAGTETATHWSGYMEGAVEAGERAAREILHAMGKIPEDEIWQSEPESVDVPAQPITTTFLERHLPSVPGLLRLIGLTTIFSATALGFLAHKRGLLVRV

[17] = test system: SH-SY5Y neuroblastoma cells; assay: Neuroprotection against H2O2, LDH necrosis assay; assay type: cell-based; conditions: 300 µM H2O2, 24 h
[18] = target: T1, human H3R
[19] = test system: human AChE; conditions: cited from earlier work
[20] = test system: human MAO B; conditions: cited from earlier work
[21] = parameters: method as in PMID 32882609; conditions: Figure 1; cited from earlier work
[22] = test system: human BuChE; conditions: cited from earlier work
[23] = target: hH3R; conditions: cited from earlier work
[24] = test system: equine BuChE; parameters: method as in PMID 33991182, PMID 32882609, PMID 28832188, PMID 19222043, PMID 18396354; conditions: Figure 2; read-out: equineBuChE IC50; cited from earlier work
[25] = test system: electric eel AChE; parameters: method as in PMID 33991182, PMID 32882609, PMID 28832188, PMID 19222043, PMID 18396354; conditions: Figure 2; read-out: electric eelAChE IC50; cited from earlier work
[26] = mean ± SEM, read-out: eeAChE IC50
[27] = values marked *; mean [95% CI]; read-out: hH3R Ki; cited from earlier work
[28] = read-out: hH3R Ki; values marked *; mean [95% CI]; cited from earlier work
[29] = Figure 2, read-out: humanH3R Ki
[30] = Figure 2, read-out: humanAChE IC50
[31] = Figure 2, read-out: humanBuChE IC50

Chain of BuChE from equine serum (eqBuChE) (P81908 whole entry): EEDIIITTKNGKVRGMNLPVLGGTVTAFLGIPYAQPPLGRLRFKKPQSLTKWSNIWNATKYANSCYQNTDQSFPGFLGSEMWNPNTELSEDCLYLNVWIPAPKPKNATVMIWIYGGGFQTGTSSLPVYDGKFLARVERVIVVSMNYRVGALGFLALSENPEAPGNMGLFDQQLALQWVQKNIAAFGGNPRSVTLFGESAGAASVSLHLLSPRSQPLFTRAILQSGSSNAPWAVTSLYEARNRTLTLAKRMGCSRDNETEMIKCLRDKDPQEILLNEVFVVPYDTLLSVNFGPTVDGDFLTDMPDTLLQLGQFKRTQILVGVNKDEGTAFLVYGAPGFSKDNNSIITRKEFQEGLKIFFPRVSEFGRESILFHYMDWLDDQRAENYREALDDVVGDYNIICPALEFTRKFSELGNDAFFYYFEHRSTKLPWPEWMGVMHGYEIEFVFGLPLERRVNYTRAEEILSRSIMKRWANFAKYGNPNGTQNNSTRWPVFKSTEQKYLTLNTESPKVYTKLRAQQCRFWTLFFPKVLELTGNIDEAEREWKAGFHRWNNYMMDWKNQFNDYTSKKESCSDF
T1 sequence (Q9Y5N1 whole entry): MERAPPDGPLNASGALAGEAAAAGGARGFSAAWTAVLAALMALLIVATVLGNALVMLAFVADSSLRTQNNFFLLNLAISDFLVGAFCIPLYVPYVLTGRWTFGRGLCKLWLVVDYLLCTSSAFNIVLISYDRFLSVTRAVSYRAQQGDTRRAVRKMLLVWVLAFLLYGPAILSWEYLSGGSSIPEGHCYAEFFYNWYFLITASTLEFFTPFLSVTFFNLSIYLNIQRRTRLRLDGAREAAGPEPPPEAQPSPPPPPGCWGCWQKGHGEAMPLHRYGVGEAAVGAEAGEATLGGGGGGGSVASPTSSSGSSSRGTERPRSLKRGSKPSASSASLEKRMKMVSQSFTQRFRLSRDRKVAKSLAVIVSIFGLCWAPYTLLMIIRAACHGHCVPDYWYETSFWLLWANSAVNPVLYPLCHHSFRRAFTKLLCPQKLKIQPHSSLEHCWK
T3 sequence (O42275 24-633): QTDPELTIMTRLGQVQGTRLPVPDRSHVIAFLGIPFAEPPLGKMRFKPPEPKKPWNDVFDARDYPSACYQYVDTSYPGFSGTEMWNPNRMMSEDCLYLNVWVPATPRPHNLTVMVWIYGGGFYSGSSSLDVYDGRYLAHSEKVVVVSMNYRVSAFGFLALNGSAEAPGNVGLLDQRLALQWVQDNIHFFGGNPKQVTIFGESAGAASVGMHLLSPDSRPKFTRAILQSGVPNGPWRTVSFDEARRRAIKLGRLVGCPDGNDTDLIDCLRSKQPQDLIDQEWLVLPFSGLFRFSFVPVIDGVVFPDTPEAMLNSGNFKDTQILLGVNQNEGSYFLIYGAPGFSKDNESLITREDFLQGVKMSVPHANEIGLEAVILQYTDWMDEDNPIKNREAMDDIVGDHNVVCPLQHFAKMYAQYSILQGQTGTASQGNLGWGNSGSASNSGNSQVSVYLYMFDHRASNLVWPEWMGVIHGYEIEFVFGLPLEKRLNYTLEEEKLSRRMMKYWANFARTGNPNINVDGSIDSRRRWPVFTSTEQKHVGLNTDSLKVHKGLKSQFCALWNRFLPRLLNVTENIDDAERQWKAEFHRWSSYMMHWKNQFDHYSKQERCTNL
T2 sequence (P22303 32-614): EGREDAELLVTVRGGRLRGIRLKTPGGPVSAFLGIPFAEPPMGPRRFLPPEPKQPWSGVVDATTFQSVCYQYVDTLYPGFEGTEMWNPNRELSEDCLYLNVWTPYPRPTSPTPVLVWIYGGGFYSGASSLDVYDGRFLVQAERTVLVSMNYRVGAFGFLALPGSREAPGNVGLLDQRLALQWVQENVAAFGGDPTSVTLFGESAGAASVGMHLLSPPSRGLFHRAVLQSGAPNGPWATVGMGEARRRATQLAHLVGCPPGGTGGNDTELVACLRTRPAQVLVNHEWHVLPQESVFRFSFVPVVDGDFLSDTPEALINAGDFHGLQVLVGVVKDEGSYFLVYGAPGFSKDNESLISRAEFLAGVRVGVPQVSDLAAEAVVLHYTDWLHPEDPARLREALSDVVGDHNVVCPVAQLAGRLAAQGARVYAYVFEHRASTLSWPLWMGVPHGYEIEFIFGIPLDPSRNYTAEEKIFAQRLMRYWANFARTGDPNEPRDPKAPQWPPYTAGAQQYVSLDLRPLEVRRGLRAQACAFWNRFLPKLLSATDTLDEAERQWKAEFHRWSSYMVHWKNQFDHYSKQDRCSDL
T5 sequence (P06276 29-602): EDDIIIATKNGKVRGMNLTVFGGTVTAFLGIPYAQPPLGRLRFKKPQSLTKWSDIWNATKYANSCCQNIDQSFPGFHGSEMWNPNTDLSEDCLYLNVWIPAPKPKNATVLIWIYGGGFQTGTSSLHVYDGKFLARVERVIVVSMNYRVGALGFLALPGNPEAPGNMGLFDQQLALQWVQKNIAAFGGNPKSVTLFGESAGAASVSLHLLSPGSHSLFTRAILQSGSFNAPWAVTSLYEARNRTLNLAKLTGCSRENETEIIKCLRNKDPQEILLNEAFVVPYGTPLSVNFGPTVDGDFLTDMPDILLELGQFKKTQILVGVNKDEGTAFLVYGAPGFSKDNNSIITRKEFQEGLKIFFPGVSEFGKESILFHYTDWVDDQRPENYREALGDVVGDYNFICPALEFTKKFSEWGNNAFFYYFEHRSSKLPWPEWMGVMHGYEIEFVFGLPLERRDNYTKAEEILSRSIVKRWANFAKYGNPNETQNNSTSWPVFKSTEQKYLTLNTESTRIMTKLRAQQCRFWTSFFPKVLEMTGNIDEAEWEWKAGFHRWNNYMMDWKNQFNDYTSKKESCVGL
Chain of eqBuChE (P81908 whole entry): as the sequence (P81908 whole entry) above
T4 sequence (O42275 24-633): as the sequence (O42275 24-633) above

Cn1c(=O)c2c(ncn2C)n(C)c1=O [Caffeine, reference compound]
Pe ± SD [1]: 15.1 ± 0.4 10^−6 cm/s

O=C(O)C(=O)O.O=C(c1ccc(F)cc1)c1ccc(OCCCCCN2CCCCC2)cc1 [Compound 6, (4-Fluorophenyl) (4-((5-(piperidin-1-yl)pentyl)oxy)phenyl)methanone hydrogen oxalate]
% biotransformed ([2]; MLMs, 120 min, UPLC): around 34%
% Remaining ([2]; MLMs, 120 min incubation): 65.95%
Metabolic Pathway ([2]; MLMs, metabolites M1, M2, M3): reduction of carbonyl group hydroxylation reduction of carbonyl group, hydroxylation
metabolic stability (in words) ([2]; mouse liver microsomes): moderate metabolic stability
remaining at 2 h ([2]; mouse, mouse liver microsomes, pH 7.4, MLMs, 120 min incubation): 66%
ED50 ([3]; 0–5 min after formalin, read-out: ED50 phase I (acute pain)): 20.9 mg/kg
ED50 ([3]; 15–30 min after formalin, read-out: ED50 phase II (inflammatory pain)): 17.5 mg/kg
concentration decreasing HepG2 cell viability [4]: ≥ 10000 nM
concentration range with lack of hepatotoxicity effect ([4]; HepG2 cells): 100 to 1000 nM
latency time in the retention trial ([5]; 15 mg/kg i.p. in scopolamine-treated mice): 47.07 ± 17.56
latency time in the retention trial ([5]; 15 mg/kg i.p., without scopolamine): 151.89 ± 5.46
latency time in the retention trial ([5]; 30 mg/kg i.p. in scopolamine-treated mice): 51.56 ± 21.17
Ki [6]: 0.008 µM
highest non-toxic concentration [7]: 10 µM
Pe ± SD [1]: 6.3 ± 0.6 10^−6 cm/s
IC50 [8]: 9.59 µM
mechanism of eqBuChE inhibition [9]: mix type
IC50 [10, 26]: 2.31 µM
Papp [11]: 6.3 ×10⁻⁶ cm/s
IC50 [12]: 0.17 µM and 0.172 µM
effect on viability (MTS test) ([13]; 10 µM): no increase in the viability
mechanism of eeAChE inhibition [14]: non-competitive
IC50 [15]: 1.16 µM
inhibition at 1 µM [16]: 25%
effect on necrosis (LDH test) ([17]; 10 µM): slight inhibition of the necrosis process

O=C(c1ccccc1)c1cccc(OCCCCCCN2CCCCC2)c1 [Compound 8, Phenyl (3-((6-(piperidin-1-yl)hexyl)oxy)phenyl)methanone hydrogen oxalate]
Ki [18, 27]: 0.076 µM
IC50 [10, 26]: 3.63 ± 0.111 µM
IC50 [12]: 2.1 ± 0.06 µM
inhibition at 1 µM [16]: 15%

O=C(c1ccccc1)c1ccc(OCCCCCCN2CCCCC2)cc1 [Compound 9, Phenyl (4-((6-(piperidin-1-yl)hexyl)oxy)phenyl)methanone hydrogen oxalate]
Ki [18, 27]: 0.041 µM
IC50 [10, 26]: 3.73 ± 0.085 µM
IC50 [12]: 1.78 ± 0.034 µM
inhibition at 1 µM [16]: 9%

CC1CCCN(CCCCCOc2ccc(C(=O)c3ccccc3)cc2)C1 (stereo not shown) [Compound 14, (4-((5-(3-Methylpiperidin-1-yl)pentyl)oxy)phenyl)(phenyl)methanone hydrogen oxalate]
Ki [18, 27]: 0.04 µM
IC50 [10, 26]: 3.18 ± 0.083 µM
IC50 [12]: 3.78 ± 0.061 µM
inhibition at 1 µM [16]: 9%

CC1CCCN(CCCCCCOc2cccc(C(=O)c3ccccc3)c2)C1 (stereo not shown) [Compound 18, (3-((6-(3-Methylpiperidin-1-yl)hexyl)oxy)phenyl)(phenyl)methanone hydrogen oxalate]
Ki [18, 27]: 0.11 µM
IC50 [10, 26]: 2 ± 0.03 µM
IC50 [12]: 2.9 ± 0.077 µM
inhibition at 1 µM [16]: 27%

CC1CCCN(CCCCCCOc2ccc(C(=O)c3ccccc3)cc2)C1 (stereo not shown) [Compound 19, (4-((6-(3-Methylpiperidin-1-yl)hexyl)oxy)phenyl)(phenyl)methanone hydrogen oxalate]
Ki [18, 27]: 0.053 µM
IC50 [10, 26]: 2.11 ± 0.05 µM
IC50 [12]: 1.98 ± 0.034 µM
inhibition at 1 µM [16]: 7%

O=C(c1ccccc1)c1ccc(OCCCCCN2CCCCCC2)cc1 [Compound 28, (4-((5-(Azepan-1-yl)pentyl)oxy)phenyl)(phenyl)methanone hydrogen oxalate]
Ki [18, 28]: 0.039 µM
IC50 ([10]; eeAChE IC50, mean ± SEM): 4.63 ± 0.1 µM
IC50 [12]: 0.678 ± 0.007 µM
inhibition at 1 µM [16]: 29%

O=C(c1ccccc1)c1cccc(OCCCCCCN2CCCCCC2)c1 [Compound 32, (3-((6-(Azepan-1-yl)hexyl)oxy)phenyl)(phenyl)methanone hydrogen oxalate]
Ki [18, 27]: 0.07 µM
IC50 [10, 26]: 1.55 ± 0.034 µM
IC50 [12]: 0.616 ± 0.002 µM
inhibition at 1 µM [16]: 17%

O=C(c1ccccc1)c1ccc(OCCCCCCN2CCCCCC2)cc1 [Compound 33, (4-((6-(Azepan-1-yl)hexyl)oxy)phenyl)(phenyl)methanone hydrogen oxalate]
Ki [18, 28]: 0.041 µM
IC50 [10, 26]: 1.81 ± 0.038 µM
IC50 [12]: 1.28 ± 0.038 µM
inhibition at 1 µM [16]: 23%

O=c1c2ccccc2oc2ccc(OCCCCCN3CCCCCC3)cc12 [Compound I]
IC50 ([19]; Figure 1, read-out: hAChEI IC50): 0.39 µM
IC50 ([20]; Figure 1, read-out: hMAO B IC50): 0.78 µM
in vivo activity [21]: significant memory-enhancing effect
IC50 ([22]; Figure 1, read-out: hBuChE IC50): 1.28 µM
Ki ([23]; Figure 1, read-out: hH3R Ki): 0.17 µM

COc1cccc2c1C(=O)c1c(O)c3c(c(O)c1C2=O)C[C@@](O)(C(=O)CO)C[C@@H]3O[C@H]1C[C@H](N)[C@H](O)[C@H](C)O1 [Doxorubicin, reference compound]
concentration decreasing HepG2 cell viability [4]: ≤ 1000 nM

CCN(CC)Cc1cc2c(=O)c3c(O)cccc3oc2cc1OCC=C(C)C [compound III]
IC50 [24]: 0.51 µM
IC50 [25]: 2.6 µM

O=c1c2ccccc2oc2ccc(OCCCCCCN3CCCCCC3)cc12 [compound II]
IC50 [24]: 0.61 µM
IC50 ([20]; Figure 2, read-out: humanMAOB IC50): 0.39 µM
IC50 [25]: 0.31 µM
Ki [23, 29]: 0.5 µM

c1cc2c(cc1OCCCCCCN1CCCCC1)CN1CCCC1=N2 [compound IV]
IC50 [19, 30]: 0.0391 µM
IC50 [24]: 1.3 µM
Ki [23, 29]: 0.11 µM

COc1ccc(C(=O)c2cccc(CN(C)Cc3ccccc3)c2)cc1OC [compound V]
IC50 [19, 30]: 0.46 µM
IC50 [22, 31]: 60.7 µM

C[C@@H]1NCCc2cc(O)c(O)cc21 [salsolinol, reference compound]
effect on viability (MTS test) ([13]; 50 µM): statistically significantly increased the number of living cells
effect on necrosis (LDH test) ([17]; 50 µM): lowered the number of necrotic cells to the control level

xanthostigmine
IC50 [19, 30]: 0.0003 µM
IC50 [22, 31]: 0.048 µM
